Source: patent publication US4576949A, “Use of 5,6,7,8-tetrahydroquinolines and 5,6-dihydropyrindines as leukotriene and lipoxygenase inhibitors and the novel 3-substituted compounds therein” (The Upjohn Company, priority 1984, dated 1986)

Tested on: LTC/LTD
Assay: inhibition of leukotriene C and D (LTC/LTD) synthesis in vitro
Type: cell-based
Conditions: for activity at 1 µg / LTC/LTD inhibition, expressed as % of control, at 1.0: 1.0 μg; for activity at 1 µg: read-out: LTC/LTD inhibition, expressed as % of control, at 1.0; for activity at 10 µg: read-out: LTC/LTD inhibition, expressed as % of control, at 10 μg; for activity at 0.1 µg: 0.1 μg, read-out: LTC/LTD inhibition, expressed as % of control, at 0.1
From the text: Thus, the following TABLE II provides examples of the biological activity as determined by methods known in the art (see Bach, M. K., et al., 6,9-deepoxy-6,9-phenylimino-Δ-6,8-prostaglandin I1, (U-60,257). A New Inhibitor of Leukotriene C and D Synthesis: In Vitro Studies. Prostaglandins 23, 759-771, 1982.) for the present invention having formula II.
^a Values for inhibition are expressed as % of control.
LTC/LTD is leukotriene C or D.

Row | Structure (SMILES) | activity at 1 µg [%] | activity at 10 µg (10 μg) [%] | activity at 0.1 µg [%] | LTC/LTD inhibition, expressed as % of control, at 1.0 | LTC/LTD inhibition, expressed as % of control, at 10 μg (10 μg)
1 | COC(=O)C=Cc1cc2c(nc1C)C(=Cc1ccccc1)CCC2 [3-[5,6,7,8-Tetrahydro-2-methyl-8-(phenylmethylene)-3-quinolinyl]-2-propenoic acid methyl ester] | 99 | 117 | – | – | –
2 | CC(=O)Oc1ccc(C=C2CCc3cccnc32)cc1 [4-[(5,6-Dihydro-7H-pyrindin-7-ylidene)methyl]phenol acetate] | 88 | 45 | – | – | –
3 | CCOC(=O)c1cc2c(nc1C)C(Cc1ccccc1)CCC2 (centres unmarked) [5,6,7,8-Tetrahydro-2-methyl-8-(phenylmethyl)-3-quinolinecarboxylic acid ethyl ester] | – | – | 110 | – | –
4 | CCOC(=O)c1cc2c(nc1C)C(=Cc1ccccc1)CCC2 [5,6,7,8-Tetrahydro-2-methyl-8-(phenylmethylene)-3-quinolinecarboxylic acid ethyl ester] | 101 | – | – | 96 % of control | –
5 | CCOC(=O)c1cc2c(nc1C)C(CCCCCO)CCC2 (centres unmarked) [5,6,7,8-Tetrahydro-8-(5-hydroxypentyl)-2-methyl-3-quinolinecarboxylic acid ethyl ester] | 121 | – | – | 140 % of control | –
6 | CCOC(=O)c1cc2c(nc1C)C(=Cc1ccc(OC(C)=O)cc1)CCC2 [8-[[4-(Acetyloxy)phenyl]methylene]-5,6,7,8-tetrahydro-2-methyl-3-quinolinecarboxylic acid ethyl ester] | 78 | 34 | 89 | – | –
7 | CCOC(=O)c1cc2c(nc1C)C(CC(=O)CCCO)CCC2 (centres unmarked) [N; CHCO(CH2)3 OH; n 1; R8 CH3; R9 CO2 Et, 5,6,7,8-Tetrahydro-8-(5-hydroxy-2-oxopentyl)-2-methyl-3-quinolinecarboxylicacid ethyl ester] | 52 | 41 | 19 | – | –
8 | C(=C1CCCc2cccnc21)c1ccccc1 [N; XII wherein M is H; n 1; R8 H; R9 H, 5,6,7,8-Tetrahydro-8-(phenylmethylene)-quinoline] | 105 | 33 | – | – | –
9 | CCOC(=O)c1cc2c(nc1C)C(=Cc1ccco1)CCC2 [N; XIV; n 1; R8 CH3; R9 CO2 Et, 8-(2-Furanylmethylene)-5,6,7,8-tetrahydro-2-methyl-3-quinolinecarboxylic acid ethyl ester] | – | 16 | – | – | 31 % of control
10 | CCOC(=O)c1cc2c(nc1C)C(CC1CCCO1)CCC2 (centres unmarked) [N; XIX; n 1; R8 CH3; R9 CO2 Et] | 67 | 52 | – | – | –
11 | C(=C1CCc2cccnc21)c1cccs1 [N; XV; n 0; R8 H; R9 H, 5,7 -Dihydro-7-(2-thienylmethylene)-5H-1-pyrindine] | 67 | 15 | – | – | –
